Test results taken from publication PMC4940736 (Scientific Reports, 2016).

Columns and labels:
[1] = molecular target: MARV NP (amino acids 19–370) (Lake Victoria marburgvirus, UniProt P27588); type: binding, Marburg virus
[2] = molecular target: EBOV NP (amino acids 36–351) (Zaire ebolavirus, UniProt P18272); type: binding, Ebola virus
EBOV NP (amino acids 36–351), sequence (P18272 36-351 limits assumed): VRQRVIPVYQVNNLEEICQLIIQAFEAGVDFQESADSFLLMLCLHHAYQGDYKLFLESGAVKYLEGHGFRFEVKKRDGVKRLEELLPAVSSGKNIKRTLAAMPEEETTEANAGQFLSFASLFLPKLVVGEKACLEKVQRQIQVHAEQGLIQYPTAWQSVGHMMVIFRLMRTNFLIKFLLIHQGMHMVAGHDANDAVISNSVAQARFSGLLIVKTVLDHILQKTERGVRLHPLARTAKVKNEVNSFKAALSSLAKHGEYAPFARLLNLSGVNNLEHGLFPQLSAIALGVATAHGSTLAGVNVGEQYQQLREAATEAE

MARV NP (amino acids 19–370), sequence (P27588 19-370 limits assumed): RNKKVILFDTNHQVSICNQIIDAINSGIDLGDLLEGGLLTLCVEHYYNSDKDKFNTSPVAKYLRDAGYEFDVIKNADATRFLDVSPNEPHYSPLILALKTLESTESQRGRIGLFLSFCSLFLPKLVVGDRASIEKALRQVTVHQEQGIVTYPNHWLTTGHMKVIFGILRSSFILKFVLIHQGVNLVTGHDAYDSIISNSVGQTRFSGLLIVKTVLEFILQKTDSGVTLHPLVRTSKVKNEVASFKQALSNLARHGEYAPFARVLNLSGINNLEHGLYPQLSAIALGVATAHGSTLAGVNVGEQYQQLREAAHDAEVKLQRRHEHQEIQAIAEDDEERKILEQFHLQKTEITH

Compound | S/N AVE [1] | VIP [1] | S/N AVE [2] | VIP [2] | putative ligand in licorice crude extract screen [1] | putative ligand in licorice crude extract screen [2]
O=c1cc(-c2ccc(O)cc2)oc2c([C@@H]3OC[C@H](O)[C@H](O)[C@H]3O)c(O)c([C@@H]3O[C@H](CO)[C@@H](O)[C@H](O)[C@H]3O)c(O)c12 [GC3, Schaftoside] | 1.62 | 1.60 | 1.11 | 0.60 | – | –
O=C(/C=C/c1ccc(O)cc1)c1ccc(O[C@@H]2O[C@H](CO)[C@@H](O)[C@H](O)[C@H]2O)cc1O [GC4, Neoisoliquiritin] | 1.72 | 1.31 | 1.58 | 1.18 | – | –
COc1ccc(-c2coc3cc(O[C@@H]4O[C@H](CO)[C@@H](O)[C@H](O)[C@H]4O)ccc3c2=O)cc1 [GC5, Ononin] | 1.76 | 1.28 | 1.46 | 1.09 | – | –
CC1(C)[C@@H](O[C@H]2O[C@H](C(=O)O)[C@@H](O)[C@H](O)[C@H]2O[C@@H]2O[C@H](C(=O)O)[C@@H](O)[C@H](O)[C@H]2O)CC[C@]2(C)[C@H]3C(=O)C=C4[C@@H]5C[C@@](C)(C(=O)O)CC[C@]5(C)CC[C@@]4(C)[C@]3(C)CC[C@@H]12 [GC6, Glycyrrhizin] | 0.96 | 1.39 | 1.15 | 5.23 | did not observe its direct binding | did not observe its direct binding
O=C1C[C@@H](c2ccc(O)cc2)Oc2cc(O)ccc21 [GC8, Liquiritigenin] | 1.50 | 0.65 | 1.04 | 0.47 | – | –
COc1ccc(-c2coc3cc(O)ccc3c2=O)cc1O [GC9, Calycosin] | 1.36 | 0.16 | 1.01 | 0.14 | – | –
C=CC(C)(C)c1cc(/C=C/C(=O)c2ccc(O)cc2)c(OC)cc1O [GC13, Licochalcone A] | 6.85 | 2.03 | 5.17 | 2.27 | met the aforementioned thresholds | met the aforementioned thresholds
O=C(/C=C/c1ccc(O[C@@H]2O[C@H](CO)[C@@H](O)[C@H](O)[C@H]2O)cc1)c1ccc(O)cc1O [GC14, Isoliquiritin] | 1.73 | 2.12 | 1.22 | 1.29 | – | –
glycyrrhetinic acid [GC7/10] | – | – | – | 1.44 | met the aforementioned thresholds | met the aforementioned thresholds
